Experimental data: patent US12578331B2, “Monolayer of PBMCs or bone-marrow cells and uses thereof” (Mobius Biotechnology GmbH, priority 2014, dated 2026)

What was measured:
CD34+ or pSTAT5+ cells = experiment: Personalized chemotherapy screen in PBMC monolayer of patients with myeloproliferative neoplasm / primary myelofibrosis: viability of CD34+ or pSTAT5+ cells; assay type: cell-based, human
Description: Method: PBMCs were cultured, fixed and stained as to protocol outlined in the above examples. 384-well plates were imaged using automated confocal microscope in 4-separate channels. We stained CD34-APC, pSTAT5-PE, GFP viability maker, and a DNA binding nuclear stain. Patient material was cultured on drugs for 18 hours before the addition of the viability marker. These images contained both clonal blasts (almost all CD34+ cells that are present in the peripheral blood,) activated cells (pSTAT5+ cells,) as well as inherently healthy cells from the same donor. […] PBMCs from peripheral blood of a patient diagnosed with primary myelofibrosis were purified over a ficol destiny gradient as described above following manufacture directions. The cells were plated as to the protocol in this application in 384-well black plastic imaging plates (corning) containing 350 FDA approved drugs in DMSO at 10 uM. The cells were plated at 20.000 cell/well in 50 ul of RPMI supplemented with 5% FCS 0.1% Pen/strep. The cells were incubated overnight and a viability dye was added (fixable live/dead green, Invitrogen following manufacture directions). The cells were fixed and permeablized in PBS containing 2% formaldehyde with 0.1% Tween-x114 for 10 minute at room temperature. The solution was then replaced with PBS containing antibody against CD34 and pSTAT5 (BD biosciences) for 1 hour. The solution was then replaced with PBS containing DAPI at manufacture recommended concentration. The plates were imaged at 10× on an Operetta (PE) automated confocal microscope in four channels using band-pass filter light separation (DAPI, GFP, PE, APC). Using an image analysis pipeline, the sensitivity of the cancer cells (CD34 and pSTAT5 positive) to each drug was compared to the sensitivity on the healthy cells (NOT CD34 and pSTAT5 positive). All results were normalized to the control, DMSO alone.

[1] = test system: primary myelofibrosis (PMF)-patients; experiment: Clinical treatment of primary myelofibrosis patients already on Ruxolitinib with added Azacitidine; assay type: in vivo, human
Description: PBMCs from peripheral blood of a patient diagnosed with primary myelofibrosis were purified over a ficol destiny gradient as described above following manufacture directions. The cells were plated as to the protocol in this application in 384-well black plastic imaging plates (corning) containing 350 FDA approved drugs in DMSO at 10 uM. The cells were plated at 20.000 cell/well in 50 ul of RPMI supplemented with 5% FCS 0.1% Pen/strep. The cells were incubated overnight and a viability dye was added (fixable live/dead green, Invitrogen following manufacture directions). The cells were fixed and permeablized in PBS containing 2% formaldehyde with 0.1% Tween-x114 for 10 minute at room temperature. The solution was then replaced with PBS containing antibody against CD34 and pSTAT5 (BD biosciences) for 1 hour. The solution was then replaced with PBS containing DAPI at manufacture recommended concentration. The plates were imaged at 10× on an Operetta (PE) automated confocal microscope in four channels using band-pass filter light separation (DAPI, GFP, PE, APC). Using an image analysis pipeline, the sensitivity of the cancer cells (CD34 and pSTAT5 positive) to each drug was compared to the sensitivity on the healthy cells (NOT CD34 and pSTAT5 positive). All results were normalized to the control, DMSO alone. […]

Nc1ncn([C@@H]2O[C@H](CO)[C@@H](O)[C@H]2O)c(=O)n1 [Azacitidine]
viability of cells stained for CD34 or pSTAT5 (CD34+ or pSTAT5+ cells; MPN patient PBMCs, approximately 350 compounds, 18 hours on drugs, FIG. 6): decreased the viability of cells expressing the biomarkers | titration: viability of CD34+ cells compared to healthy cells and to DMSO (CD34+ or pSTAT5+ cells; same patient, FIG. 7): concentration dependent effects were seen | rank among compounds reducing percentage of viable cells expressing CD34 or pSTAT5 (CD34+ or pSTAT5+ cells; two patients with early PMF or PMF, both treated with Ruxolitinib at the time of Pharmacoscopy, FIG. 10): Top drug or highly enriched drug | number of diseased cells in patient ([1]; patient undergoing treatment using Ruxolitinib, Azacitidine additionally used, FIG. 12D): significantly reduced the number of diseased cells | clinical response of patients ([1]; two PMF patients already on Ruxolitinib (Jakavi) treated with Azacitidine): responding well
